Data published in patent publication US10632133B2, “Anti-viral azide containing compounds” (Life Technologies Corporation, priority 2010, dated 2020).

Key:
[1] = system: HIV; assay: HIV infectivity, luciferase reporter assay on TZM/BI reporter cell line with azide-labeled virus; type: cell-based, human immunodeficiency virus (HIVNL4-3); settings: virus produced in CEMx174 cells spiked with the compound; incubated 12 hours on TZM/BI; single cycle replication system; two luciferase reagents (FIGS. 3 and 4)
Procedure: CEMx174 cells were transfected with HIVNL4-3 in a T-150 flask and the virus production was monitored by reverse transcriptase activity until peak virus production occurred (usually 7 to 9 days post transfection). Prior to transfection, the CEMx174 cells were spiked with the following azide-modified biomolecules: 15-azidopentadecanoic acid (50-100 μM), 12-azidododecanoic acid (50-100 μM), tetraacetylated N-azidoacetylgalactosamine (20-40 μM), and tetraacetylated N-azidoacetyl-D-mannosamine (20-40 μM).
Labeled virus was also obtained from the transfected cells. More specifically, virus-containing supernatants were collected and virus was purified through 20% sucrose as previously described (Graham, D. R. et al., Proteomics 2008, 8:4919-30). The purified virus was then mixed with the CLICK-IT® detection reagent, tetramethylrhodamine (TAMRA) alkyne and the CLICK-IT® Protein Reaction Buffer Kit (Invitrogen, Carlsbad, Calif.). Virus samples were run on a one-dimensional gel to reveal azide-labeled viral proteins (FIG. 2). […]
To examine the effect of the azide-modified biomolecules on the innate biology of the virus, the azide-labeled virus from the transfected cells was isolated and tested in cell infection studies. […] Viral infectivity was determined by measuring cellular luciferase activities with two different luciferase reagents.

[2] = system: Nuclear-GFP BacMam 2.0 virus (baculovirus); assay: BacMam baculovirus infectivity in U2-OS cells (nuclear-GFP expression); type: cell-based; settings: virus labeled in Sf9 cells with 50 uM analog; 20 or 50 uL virus, overnight at 37C; FIG. 5
Excerpt: Inhibition of insect cell baculovirus infectivity with azido fatty acid analogs: The BacMam system uses a modified insect cell virus (baculovirus) as a vehicle to efficiently deliver and express genes in mammalian cells, A Nuclear-GFP BacMam 2.0 expression system (Invitrogen, C10602) was used as a model to determine if PTM analog labeling of the virus would affect mammalian cell infectivity. Viruses were labeled with various PTM analogs and used to infect mammalian cells. Infectivity was determined by the expression of nuclear-GFP, is viral entry into the cell is required for expression of GFP protein. […]
Characterization of BacMam virus production: To verify, quantitate, and normalize the amount of enriched viruses obtained from insect cell supernatants, samples of each virus were lysed in SDS sample preparation buffer (SPB), sonicated with a probe tip sonicator, and heated at 90C to completely dissolve the viral proteins. Viral protein concentrations of the lysates were then determined. […]
Mammalian cell infection protocol: To determine if the PTM analog-labeled viruses retain the ability to infect mammalian cells, 50,000 U2-OS cells (human osteosarcoma cell line) were plated onto a 6 well-chamber glass bottom plate. […] The following day cells were imaged on AMG EVOS fluorescence microscope at 10× or 20× magnification using both white light and GFP filters (FIG. 5). […]

Compound	impact on the infectivity of the virus (cellular luciferase activities) [1]	nuclear-GFP expression in U2-OS cells treated with labeled BacMam virus [2]
[N-]=[N+]=NCCCCCCCCCCCC(=O)O [12-azidododecanoic acid]	profound impact on the infectivity of the virus	no nuclear-GFP expression
[N-]=[N+]=NCCCCCCCCCCCCCCC(=O)O [15-azidopentadecanoic acid]	–	no nuclear-GFP expression
